Patent publication US5922580A, “Non-reducing saccharide-forming enzyme, its preparation and uses” (priority 1992, dated 1999)
Each block holds one compound with its values, some of them ahead of it.

Legend:
[1] = target: T1, trehalase derived from pig kidney (Sus scrofa, UniProt I3LIR5); assay: Hydrolysis by trehalase; format: biochemical; conditions: one unit trehalase, pH 5.7, 37° C., 18 hours; HPLC
T1 construct: purchased Sigma Chemical Company, St. Louis, USA; host or cells: pig kidney
T1 sequence (I3LIR5 24-583): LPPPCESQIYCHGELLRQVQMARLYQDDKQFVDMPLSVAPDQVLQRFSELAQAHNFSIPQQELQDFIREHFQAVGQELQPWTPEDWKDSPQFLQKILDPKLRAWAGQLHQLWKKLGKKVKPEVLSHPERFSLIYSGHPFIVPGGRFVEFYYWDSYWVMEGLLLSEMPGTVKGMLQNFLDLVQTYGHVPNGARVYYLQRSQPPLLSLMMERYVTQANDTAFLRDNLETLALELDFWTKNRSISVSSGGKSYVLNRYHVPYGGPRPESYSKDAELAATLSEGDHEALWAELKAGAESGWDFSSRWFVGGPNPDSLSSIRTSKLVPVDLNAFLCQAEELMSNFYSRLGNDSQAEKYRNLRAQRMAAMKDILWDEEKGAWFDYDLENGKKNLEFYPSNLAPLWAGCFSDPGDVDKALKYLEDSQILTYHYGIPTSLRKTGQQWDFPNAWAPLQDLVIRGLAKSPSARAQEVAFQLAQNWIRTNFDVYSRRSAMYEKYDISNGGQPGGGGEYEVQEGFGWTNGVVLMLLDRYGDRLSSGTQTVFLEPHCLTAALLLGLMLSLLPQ

[2] = Hygroscopicity of product; format: physicochemical; conditions: powdery product
[3] = Reducing power by Somogyi-Nelson's method expressed as DE; format: physicochemical; conditions: high-purity saccharide preparations of Experiment 4
Method: The reducing powders of these novel saccharides were determined on the Somogyi-Nelson's method and expressed by DE (dextrose equivalent).

[4] = Maillard reaction with glycine; format: physicochemical; conditions: for Coloration degree (480 nm): 1% glycine, 10% saccharide, 50 mM phosphate buffer pH 7.0, 100° C. for 90 min, absorbance in 1-cm cell; for Coloration degree relative to corresponding material maltooligosaccharide: Maillard reaction, 480 nm
Method: As a control, maltotriose, maltotetraose, maltopentaose, maltohexaose and maltoheptaose as a material for the saccharide preparations were similarly treated as above, and measured their absorbances were measured at a wave length of 480 nm.

glucoamylase = assay: Enzymatic hydrolysis by glucoamylase; format: biochemical; conditions: for Glucose / Trehalose: 50 mg in 1 ml 50 mM acetate buffer pH 4.5, one unit glucoamylase, 40° C., 6 hours, HPLC; for Molecular ratio (Glucose/Trehalose): glucoamylase hydrolysate
Method: Fifty mg aliquots of non-reducing saccharides P I, P II, P III, P IV and P V in Experiment 4 were respectively dissolved in one ml of 50 mM acetate buffer (pH 4.5), admixed with one unit of glucoamylase commercialized by Seikagaku-Kogyo Co., Ltd., Tokyo, Japan, to effect enzymatic hydrolysis at 40° C. for 6 hours. The only saccharides detected in every resultant mixture on HPLC analysis were glucose and trehalose.

β-amylase = β-amylase (Glycine max, UniProt P10538); assay: Hydrolysis by β-amylase; format: biochemical; conditions: similarly as with glucoamylase
[5] = target: T2, α-amylase specimen derived from pig pancreas (Sus scrofa, UniProt P00690); assay: Hydrolysis by α-amylase; format: biochemical; set-up: Saccharide composition of hydrolysate: P I / Saccharide composition of hydrolysate: P II / Saccharide composition of hydrolysate: G3 (maltotriose) / Saccharide composition of hydrolysate: G2 (maltose) / Saccharide composition of hydrolysate: G1 (glucose): unit not given here; conditions: for Hydrolysis by α-amylase: conclusion from Table 6; for Saccharide composition of hydrolysate: G1 (glucose) / Saccharide composition of hydrolysate: G2 (maltose) / Saccharide composition of hydrolysate: G3 (maltotriose) / Saccharide composition of hydrolysate: P I / Saccharide composition of hydrolysate: P II: α-amylase, 10 mg/ml, pH 6.9, 37° C., 18 hours, HPLC
T2 construct: purchased Sigma Chemical Company, St. Louis, USA; host or cells: pig pancreas
T2 sequence (P00690 16-511): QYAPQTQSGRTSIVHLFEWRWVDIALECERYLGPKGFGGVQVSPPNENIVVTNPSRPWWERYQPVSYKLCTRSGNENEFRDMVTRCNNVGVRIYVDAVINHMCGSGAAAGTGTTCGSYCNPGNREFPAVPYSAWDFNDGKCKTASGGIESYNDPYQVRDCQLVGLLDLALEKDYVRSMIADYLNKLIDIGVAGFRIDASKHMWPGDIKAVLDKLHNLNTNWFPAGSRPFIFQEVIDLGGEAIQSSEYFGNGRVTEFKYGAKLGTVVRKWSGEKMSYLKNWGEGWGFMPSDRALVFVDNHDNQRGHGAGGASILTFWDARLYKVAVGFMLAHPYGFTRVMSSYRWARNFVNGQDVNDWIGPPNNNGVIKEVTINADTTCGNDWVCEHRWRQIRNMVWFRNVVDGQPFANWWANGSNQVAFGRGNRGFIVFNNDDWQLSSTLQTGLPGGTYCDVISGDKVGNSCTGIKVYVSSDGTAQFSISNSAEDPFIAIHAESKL
Method: (§1) The enzymatic reaction with the α-amylase was as follows: Dissolving 10 mg of a substrate in one ml of 50 mM phosphate buffer (pH 6.9), mixing the resultant solution with one unit of the α-amylase, and incubating the resultant mixture at 37° C. for 18 hours. The enzymatic reaction with the α-glucosidase was conducted under the same conditions as in the case of α-amylase except that 50 mM acetate buffer (pH 4.0) was used as a buffer. The enzymatic reaction with the rat intestinal acetone powder was carried out under the same conditions as in the case of α-amylase except that 50 mM maleate buffer (pH 6.0) was used as a buffer.

[6] = target: T3, α-glucosidase specimen derived from rice (Oryza sativa subsp. japonica, UniProt Q653V7); assay: Hydrolysis by α-glucosidase; format: biochemical; conditions: 50 mM acetate buffer pH 4.0, 37° C., 18 hours
T3 construct: purchased Sigma Chemical Company, St. Louis, USA; host or cells: rice
Method: as §1

[7] = tested on: rat intestinal acetone powder; assay: Hydrolysis by rat intestinal acetone powder; format: in vitro ADME; conditions: 50 mM maleate buffer pH 6.0, 37° C., 18 hours
Method: as §1

[8] = tested on: 7-week old dd-strain mice; assay: Acute toxicity test, oral; format: in vivo; conditions: for Death of mice: oral, highest possible doses

β-amylase, sequence (P10538 whole entry, species assumed): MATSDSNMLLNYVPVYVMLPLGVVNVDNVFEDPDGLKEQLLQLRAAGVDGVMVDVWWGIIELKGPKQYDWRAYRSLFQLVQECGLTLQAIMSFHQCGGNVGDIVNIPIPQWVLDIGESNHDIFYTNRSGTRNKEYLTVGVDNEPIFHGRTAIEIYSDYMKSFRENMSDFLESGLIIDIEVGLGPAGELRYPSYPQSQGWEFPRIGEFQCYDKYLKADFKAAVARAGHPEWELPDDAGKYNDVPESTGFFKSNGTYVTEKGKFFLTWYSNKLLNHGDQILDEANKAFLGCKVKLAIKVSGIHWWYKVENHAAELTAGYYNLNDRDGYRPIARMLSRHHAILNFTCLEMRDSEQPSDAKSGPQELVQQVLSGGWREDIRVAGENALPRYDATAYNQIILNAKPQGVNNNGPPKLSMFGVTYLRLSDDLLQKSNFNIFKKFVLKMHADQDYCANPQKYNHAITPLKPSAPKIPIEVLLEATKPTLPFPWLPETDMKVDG
T3 sequence (Q653V7 34-885): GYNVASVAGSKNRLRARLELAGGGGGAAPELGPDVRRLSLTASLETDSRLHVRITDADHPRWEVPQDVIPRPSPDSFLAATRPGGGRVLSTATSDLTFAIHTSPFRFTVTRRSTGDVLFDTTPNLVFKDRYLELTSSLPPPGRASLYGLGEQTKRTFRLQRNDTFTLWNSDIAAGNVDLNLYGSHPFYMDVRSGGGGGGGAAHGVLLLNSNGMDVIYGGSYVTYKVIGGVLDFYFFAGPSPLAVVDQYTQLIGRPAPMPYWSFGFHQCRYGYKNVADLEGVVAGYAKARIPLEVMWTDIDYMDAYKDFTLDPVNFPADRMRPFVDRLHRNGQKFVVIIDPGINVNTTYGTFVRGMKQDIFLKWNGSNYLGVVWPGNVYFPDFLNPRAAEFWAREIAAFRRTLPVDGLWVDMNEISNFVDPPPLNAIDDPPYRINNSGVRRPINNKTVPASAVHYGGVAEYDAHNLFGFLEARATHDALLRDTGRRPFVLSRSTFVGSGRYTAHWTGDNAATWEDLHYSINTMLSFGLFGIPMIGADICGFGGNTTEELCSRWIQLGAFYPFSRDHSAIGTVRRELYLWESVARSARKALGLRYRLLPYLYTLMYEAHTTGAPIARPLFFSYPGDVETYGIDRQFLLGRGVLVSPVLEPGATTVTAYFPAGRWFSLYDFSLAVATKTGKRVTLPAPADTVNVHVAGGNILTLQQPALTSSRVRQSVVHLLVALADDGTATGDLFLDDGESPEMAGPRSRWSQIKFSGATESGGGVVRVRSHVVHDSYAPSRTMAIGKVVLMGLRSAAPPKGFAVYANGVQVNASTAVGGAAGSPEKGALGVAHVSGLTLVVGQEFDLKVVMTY

Structure (SMILES): OC[C@H]1O[C@H](O[C@H]2O[C@H](CO)[C@@H](O)[C@H](O)[C@H]2O)[C@H](O)[C@@H](O)[C@@H]1O [trehalose, α, α-trehalose]
Hydrolysis by trehalase [1]: hydrolyzed by trehalase into glucose molecules

Hygroscopicity [2]: no substantial hygroscopicity
Structure (SMILES): OC[C@H]1O[C@H](O[C@H]2O[C@H](CO)[C@@H](O)[C@H](O)[C@H]2O)[C@H](O)[C@@H](O)[C@@H]1O [Example A-6, trehalose]

Structure (SMILES): OC[C@H]1O[C@H](O[C@H]2O[C@H](CO)[C@@H](O[C@H]3O[C@H](CO)[C@@H](O[C@H]4O[C@H](CO)[C@@H](O)[C@H](O)[C@H]4O)[C@H](O)[C@H]3O)[C@H](O)[C@H]2O)[C@H](O)[C@@H](O)[C@@H]1O [P II, α-maltosyl trehalose]
DE [3]: 0.35
Coloration degree (480 nm) [4]: 0.018
Coloration degree relative to corresponding material maltooligosaccharide [4]: 3-6%
Glucose (glucoamylase): 52.0%
Trehalose (glucoamylase): 48.0%
Molecular ratio (Glucose/Trehalose) (glucoamylase): 2.06
Hydrolysis by β-amylase (β-amylase): not hydrolyzed
Hydrolysis by α-amylase [5]: not substantially hydrolyzed
Saccharide composition of hydrolysate: G1 (glucose) [5]: 0
Saccharide composition of hydrolysate: G2 (maltose) [5]: 0.8
Saccharide composition of hydrolysate: G3 (maltotriose) [5]: 0.4
Saccharide composition of hydrolysate: P I [5]: 0
Saccharide composition of hydrolysate: P II [5]: 98.8
Saccharide composition of hydrolysate with α-glucosidase: Glucose [6]: 52.1%
Saccharide composition of hydrolysate with α-glucosidase: Other saccharides [6]: 0.3%
Saccharide composition of hydrolysate with α-glucosidase: Trehalose [6]: 47.6%
Saccharide composition of hydrolysate with rat intestinal acetone powder: Glucose [7]: 52.5%
Saccharide composition of hydrolysate with rat intestinal acetone powder: Other saccharides [7]: 0.4%
Saccharide composition of hydrolysate with rat intestinal acetone powder: Trehalose [7]: 47.1%
Death of mice [8]: no mouse died

Structure (SMILES): OC[C@H]1O[C@H](O[C@H]2O[C@H](CO)[C@@H](O[C@H]3O[C@H](CO)[C@@H](O)[C@H](O)[C@H]3O)[C@H](O)[C@H]2O)[C@H](O)[C@@H](O)[C@@H]1O [P I, α-glucosyl trehalose]
DE [3]: 0.83
Coloration degree (480 nm) [4]: 0.027
Coloration degree relative to corresponding material maltooligosaccharide [4]: 3-6%
Glucose (glucoamylase): 36.2%
Trehalose (glucoamylase): 63.8%
Molecular ratio (Glucose/Trehalose) (glucoamylase): 1.07
Hydrolysis by β-amylase (β-amylase): not hydrolyzed
Hydrolysis by α-amylase [5]: not substantially hydrolyzed
Saccharide composition of hydrolysate: G1 (glucose) [5]: 0
Saccharide composition of hydrolysate: G2 (maltose) [5]: 0.4
Saccharide composition of hydrolysate: G3 (maltotriose) [5]: 2.3
Saccharide composition of hydrolysate: P I [5]: 97.3
Saccharide composition of hydrolysate: P II [5]: 0
Saccharide composition of hydrolysate with α-glucosidase: Glucose [6]: 36.5%
Saccharide composition of hydrolysate with α-glucosidase: Other saccharides [6]: 0.5%
Saccharide composition of hydrolysate with α-glucosidase: Trehalose [6]: 63.0%
Saccharide composition of hydrolysate with rat intestinal acetone powder: Glucose [7]: 37.2%
Saccharide composition of hydrolysate with rat intestinal acetone powder: Other saccharides [7]: 0.4%
Saccharide composition of hydrolysate with rat intestinal acetone powder: Trehalose [7]: 62.4%
Death of mice [8]: no mouse died

Structure (SMILES): OC[C@H]1O[C@H](O[C@H]2O[C@H](CO)[C@@H](O[C@H]3O[C@H](CO)[C@@H](O[C@H]4O[C@H](CO)[C@@H](O[C@H]5O[C@H](CO)[C@@H](O[C@H]6O[C@H](CO)[C@@H](O[C@H]7O[C@H](CO)[C@@H](O)[C@H](O)[C@H]7O)[C@H](O)[C@H]6O)[C@H](O)[C@H]5O)[C@H](O)[C@H]4O)[C@H](O)[C@H]3O)[C@H](O)[C@H]2O)[C@H](O)[C@@H](O)[C@@H]1O [P V, α-maltopentaosyl trehalose]
DE [3]: 0.23
Coloration degree (480 nm) [4]: 0.015
Coloration degree relative to corresponding material maltooligosaccharide [4]: 3-6%
Glucose (glucoamylase): 72.9%
Trehalose (glucoamylase): 27.1%
Molecular ratio (Glucose/Trehalose) (glucoamylase): 5.11
Hydrolysis by β-amylase (β-amylase): two moles of maltose and one mole of P I
Hydrolysis by α-amylase [5]: hydrolyzed by α-amylase into lower molecular weight oligosaccharides
Saccharide composition of hydrolysate: G1 (glucose) [5]: 1.0
Saccharide composition of hydrolysate: G2 (maltose) [5]: 8.6
Saccharide composition of hydrolysate: G3 (maltotriose) [5]: 35.3
Saccharide composition of hydrolysate: P I [5]: 10.2
Saccharide composition of hydrolysate: P II [5]: 44.9
Saccharide composition of hydrolysate with α-glucosidase: Glucose [6]: 71.4%
Saccharide composition of hydrolysate with α-glucosidase: Other saccharides [6]: 0.3%
Saccharide composition of hydrolysate with α-glucosidase: Trehalose [6]: 28.3%
Saccharide composition of hydrolysate with rat intestinal acetone powder: Glucose [7]: 73.4%
Saccharide composition of hydrolysate with rat intestinal acetone powder: Other saccharides [7]: 0.1%
Saccharide composition of hydrolysate with rat intestinal acetone powder: Trehalose [7]: 26.5%
LD50 ([8]; mouse, in vivo, po): ≥ 50000 mg/kg
Death of mice [8]: no mouse died
